Measured values published in patent US11717549B2, “Steviol glycoside solubility enhancers” (CARGILL, INCORPORATED, priority 2017, dated 2023).

Experiment: Instantaneous solubility: vigorously mixed with water at room temperature (25° C.)
Type: physicochemical
Conditions: in water at room temperature, absence of compounds that enhance solubility
From the text: (§1) The composition can optionally be expressed in terms of the concentration of one or more steviol glycoside(s). […] Clear solutions without precipitates are considered soluble. Unless indicated otherwise herein, the term “solubility” refers to “equilibrium solubility.”

With `C=C1C[C@@]23CC[C@H]4[C@@](C)(CCC[C@@]4(C)C(=O)O[C@@H]4O[C@H](CO)[C@@H](O)[C@H](O)[C@H]4O[C@@H]4O[C@H](CO)[C@@H](O)[C@H](O)[C@H]4O)[C@@H]2CC[C@]1(O[C@@H]1O[C@H](CO)[C@@H](O)[C@H](O[C@@H]2O[C@H](CO)[C@@H](O)[C@H](O)[C@H]2O)[C@H]1O[C@@H]1O[C@H](CO)[C@@H](O)[C@H](O)[C@H]1O)C3` [Rebaudioside D, rebaudioside D] the instantaneous solubility was “less than 0.08%”.
For `C=C1C[C@@]23CC[C@H]4[C@@](C)(CCC[C@@]4(C)C(=O)O[C@@H]4O[C@H](CO)[C@@H](O)[C@H](O[C@@H]5O[C@H](CO)[C@@H](O)[C@H](O)[C@H]5O)[C@H]4O[C@@H]4O[C@H](CO)[C@@H](O)[C@H](O)[C@H]4O)[C@@H]2CC[C@]1(O[C@@H]1O[C@H](CO)[C@@H](O)[C@H](O[C@@H]2O[C@H](CO)[C@@H](O)[C@H](O)[C@H]2O)[C@H]1O[C@@H]1O[C@H](CO)[C@@H](O)[C@H](O)[C@H]1O)C3` [Rebaudioside M, rebaudioside M], the instantaneous solubility was “about 0.13%”.

Experiment: Equilibrium solubility: mixed with deionized water at 80° C. for 15 minutes, cooled to room temperature, observed at least four days
Type: physicochemical
Conditions: after heating to 80° C. for 15 minutes
From the text: as §1

For `C=C1C[C@@]23CC[C@H]4[C@@](C)(CCC[C@@]4(C)C(=O)O[C@@H]4O[C@H](CO)[C@@H](O)[C@H](O)[C@H]4O[C@@H]4O[C@H](CO)[C@@H](O)[C@H](O)[C@H]4O)[C@@H]2CC[C@]1(O[C@@H]1O[C@H](CO)[C@@H](O)[C@H](O[C@@H]2O[C@H](CO)[C@@H](O)[C@H](O)[C@H]2O)[C@H]1O[C@@H]1O[C@H](CO)[C@@H](O)[C@H](O)[C@H]1O)C3` [Rebaudioside D, rebaudioside D], the equilibrium solubility was 0.08%.

With `C=C1C[C@@]23CC[C@H]4[C@@](C)(CCC[C@@]4(C)C(=O)O[C@@H]4O[C@H](CO)[C@@H](O)[C@H](O[C@@H]5O[C@H](CO)[C@@H](O)[C@H](O)[C@H]5O)[C@H]4O[C@@H]4O[C@H](CO)[C@@H](O)[C@H](O)[C@H]4O)[C@@H]2CC[C@]1(O[C@@H]1O[C@H](CO)[C@@H](O)[C@H](O[C@@H]2O[C@H](CO)[C@@H](O)[C@H](O)[C@H]2O)[C@H]1O[C@@H]1O[C@H](CO)[C@@H](O)[C@H](O)[C@H]1O)C3` [Rebaudioside M, rebaudioside M] the equilibrium solubility was “about 0.2%”.

Experiment: not given
Conditions: temperature 0 ° C.; cited from earlier work

For `O=C(O)C(=O)c1ccccc1` [alpha-oxobenzeneacetic acid], the “solubility (ppm)” value is listed as 4.79E+05 ppm.

Same assay, conditions: temperature 9 ° C.; cited from earlier work

For `O=C(O)[C@]1(O)C[C@@H](O)[C@@H](O)[C@H](O)C1` [quinic acid (coffee beans), quinic acid], the “solubility (ppm)” value is listed as 2.25E+05 ppm.

Same assay, conditions: temperature 13.5 ° C.; cited from earlier work

In the case of `CC(C)(C(=O)O)C(C)(C)C(=O)O` [tetramethylbutanedioic acid], the “solubility (ppm)” value is listed as 4.78E+03 ppm.

Same assay, conditions: temperature 14 ° C.; cited from earlier work

For `CCOc1ccc(NC(=O)C(O)C(O)C(=O)O)cc1` (stereo not shown) [ethonyphenyl tartramic acid], the “solubility (ppm)” value is listed as 3.97E+03 ppm.

Same assay, conditions: temperature 14.9 ° C.; cited from earlier work

In the case of `Nc1cccc(C(=O)O)c1` [aniline-3-carboxylic acid], the “solubility (ppm)” value is listed as 5.87E+03 ppm.

Same assay, conditions: temperature 15 ° C.; cited from earlier work

Going from `O=C(O)c1cc2c(cc1C(=O)O)OCO2` [hydrastic acid] to `O=C(O)C(=O)c1ccccc1C(=O)O` [phthalonic acid], the “solubility (ppm)” value rises from 5.96E+03 ppm to 3.49E+05 ppm.

Same assay, conditions: temperature 16 ° C.; cited from earlier work

Going from `CC(C)(C(=O)O)C(C)(CC(=O)O)C(=O)O` [L-camphoronic acid] to `O=C(O)c1cc(C(=O)O)c(C(=O)O)cc1C(=O)O` [pyromellitic acid], the “solubility (ppm)” value falls from 9.99E+04 ppm to 1.40E+04 ppm.

Same assay, conditions: temperature 17 ° C.; cited from earlier work

For `CC1=NN(c2ccc([N+](=O)[O-])cc2)C(=O)C1[N+](=O)[O-]` (stereo not shown) [picrolonic acid], the “solubility (ppm)” value is given as 8.92E+03 ppm.

Same assay, conditions: temperature 20 ° C.; cited from earlier work

Going from `Cc1ccc(N)cc1S(=O)(=O)O` [4-amino-o-toluenesulfonic acid] to `Cc1ccc([N+](=O)[O-])c(C(=O)O)c1` [6-nitro-3-methylbenzoic acid], the “solubility (ppm)” value rises from 4.48E+03 ppm to 4.68E+03 ppm.

First: C=CCC1(CC)C(=O)NC(=O)N(CCCC)C1=O (stereo not shown) [5-allyl-5-ethylbutylbarbituric acid]
Second: CC(C)C1C(=O)NC(=O)NC1=O [isopropylbarbituric acid]
The “solubility (ppm)” value of the first is lower: 3.99E+03 ppm for the first, 5.89E+03 ppm for the second.

Compared with `CCNC(=O)[C@@H](C)OC(=O)Nc1ccccc1` [D-(−)-carbanilic acid (1-ethylcarbamoyl)ethyl ester], `O=C(O)C(CO)c1ccccc1` (stereo not drawn) [alpha-(hydroxymethyl)benezeneacetic acid] is higher in “solubility (ppm)” value: 3.49E+03 ppm for the first, 1.91E+04 ppm for the second.

Compared with `Nc1ccccc1C(=O)O` [aniline-2-carboxylic acid], `O=C(O)c1cccc(O)c1` [m-hydroxybenzoic acid] is higher in “solubility (ppm)” value: 3.48E+03 ppm for the first, 8.45E+03 ppm for the second.

For `O=C(O)CCc1ccccc1` [benzenepropanoic acid], the “solubility (ppm)” value is given as 5.87E+03 ppm.

Same assay, conditions: temperature 21 ° C.; cited from earlier work

Going from `CCNC(=O)COC(=O)c1ccccc1OC(C)=O` [benzoic acid, 2-(acetyloxy)-, 2-(ethylamino)-2-oxoethyl ester] to `CN(CCO)C(=O)COC(=O)c1ccccc1O` [benzoic acid, 2-hydroxy-, 2-[(2-hydroxyethyl)methylamino]-2-oxoethyl ester], the “solubility (ppm)” value rises from 5.49E+03 ppm to 6.26E+03 ppm.

For `O=C(O)CCCCCCCCCC(=O)O` [undecanedioic acid], the “solubility (ppm)” value is given as 5.07E+03 ppm.

Same assay, conditions: temperature 25 ° C.; cited from earlier work

Going from `CCC(C=CC(=O)O)CC` [4-ethyl-2-hexenoic acid] to `CCCC(C)C=CC(=O)O` (stereo not shown) [4-methyl-2-heptenoic acid], the “solubility (ppm)” value falls from 6.06E+03 ppm to 4.64E+03 ppm.

First: CCC=CCCC(=O)O [4-heptenoic acid]
Second: CC(C)C=CCCC(=O)O [6-methyl-4-heptenoic acid]
The “solubility (ppm)” value of the first is higher: 5.37E+03 ppm for the first, 4.64E+03 ppm for the second.

`CCCC(C)=CCC(=O)O` [4-methyl-3-heptenoic acid] and `CCC=C(C)CCC(=O)O` [4-methyl-4-heptenoic acid] are the same in “solubility (ppm)” value: 4.64E+03 ppm for the first, 4.64E+03 ppm for the second.

Going from `O=C(O)c1cc(=O)cc(C(=O)O)o1` [4-oxo-4H-pyran-2,6-dicarboxylic acid] to `O=C(O)c1cc(Cl)ccc1[N+](=O)[O-]` [5-chloro-2-nitrobenzoic acid], the “solubility (ppm)” value falls from 1.41E+04 ppm to 9.58E+03 ppm.

Going from `O=C1NC(=O)C2(CCC2)C(=O)N1` [5,5-trimethylenebarbituric acid] to `CCCC1(CC)C(=O)NC(=O)NC1=O` [5-ethyl-5-n-propylbarbituric acid], the “solubility (ppm)” value rises from 3.71E+03 ppm to 5.66E+03 ppm.

First: C=CCC1(CC)C(=O)NC(=O)NC1=O [5-allyl-5-ethylbarbituric acid]
Second: C=CCCCCC(=O)O [6-heptenoic acid]
The “solubility (ppm)” value of the first is lower: 4.75E+03 ppm for the first, 5.55E+03 ppm for the second.

Going from `CCC(C)CC=CC(=O)O` (stereo not shown) [5-ethyl-2-hexenoic acid] to `CC(C)CC=CC(=O)O` [5-methyl-2-hexenoic acid], the “solubility (ppm)” value falls from 6.06E+03 ppm to 5.37E+03 ppm.

Compared with `CC=CCCCC(=O)O` [5-heptenoic acid], `CCCC/C=C/C(=O)O` [trans-2-heptenoic acid] is lower in “solubility (ppm)” value: 6.79E+03 ppm for the first, 5.37E+03 ppm for the second.

`CCC(C)CC=CC(=O)O` (stereo not shown) [5-methyl-2-heptenoic acid] and `CCC(C)C=CCC(=O)O` (stereo not shown) [5-methyl-3-heptenoic acid] are the same in “solubility (ppm)” value: 4.64E+03 ppm for the first, 4.64E+03 ppm for the second.

Compared with `CCC(C)=CCCC(=O)O` [5-methyl-4-heptenoic acid], `CC(C)CCCC(=O)O` [5-methylhexanoic acid] is lower in “solubility (ppm)” value: 4.64E+03 ppm for the first, 3.93E+03 ppm for the second.

First: CC(C)CC=CCC(=O)O [6-methyl-3-heptenoic acid]
Second: CCCOC(=O)OC(C)C(=O)OC (stereo not shown) [propanoic acid, 2-[(propoxycarbonyl)oxy]-, methyl ester]
The “solubility (ppm)” value of the first is lower: 4.64E+03 ppm for the first, 5.15E+03 ppm for the second.

Compared with `CC(C)(CCCC(C)(C)C(=O)O)C(=O)O` [a,a,a′,a′-tetramethylheptanedioic acid], `CCCCCCCCC(C(=O)O)C(=O)O` [octylpropanedioic acid] is lower in “solubility (ppm)” value: 7.55E+03 ppm for the first, 5.53E+03 ppm for the second.

Going from `CC(=O)O[C@@H](C(=O)O)c1ccccc1` [acetyl-r-mandelic acid] to `CCC(=O)O[C@@H](C(=O)O)c1ccccc1` [propionyl-r-mandelic acid], the “solubility (ppm)” value falls from 1.11E+04 ppm to 5.15E+03 ppm.

First: O=C(O)[C@@H](O)c1ccccc1 [alpha-hydroxybenzeneacetic acid, (S)]
Second: O=C(O)C(O)c1ccccc1 (stereo not shown) [mandelic acid (almonds), mandelic acid]
The “solubility (ppm)” value of the first is lower: 9.26E+04 ppm for the first, 1.53E+05 ppm for the second.

Compared with `Nc1ccc(C(=O)O)cc1` [aniline-4-carboxylic acid], `O=C(O)c1ccc(O)cc1` [p-hydroxybenzoic acid] is higher in “solubility (ppm)” value: 4.98E+03 ppm for the first, 6.36E+03 ppm for the second.

Going from `O=C(O[C@@H](C(=O)O)c1ccccc1)c1ccccc1` [benzoyl-r-mandelic acid] to `O=C(O)C(=O)Nc1ccccc1` [oxanilic acid], the “solubility (ppm)” value rises from 7.78E+03 ppm to 8.17E+03 ppm.

Compared with `O=C(O)c1cccc([N+](=O)[O-])c1` [m-nitrobenzoic acid], `O=C(O)c1ccccc1[N+](=O)[O-]` [o-nitrobenzoic acid] is higher in “solubility (ppm)” value: 3.53E+03 ppm for the first, 7.44E+03 ppm for the second.

Same assay, conditions: temperature 37 ° C.; cited from earlier work

First: CC(=O)N(CC(C)C(=O)O)c1c(I)cc(I)c(N)c1I (stereo not shown) [iocetamic acid]
Second: CCC(COCCOc1c(I)cc(I)c(NC(C)=O)c1I)C(=O)O (stereo not shown) [iopronic acid]
The “solubility (ppm)” value of the first is lower: 5.26E+03 ppm for the first, 1.97E+04 ppm for the second.

Same assay, conditions: temperature 100 ° C.; cited from earlier work

Going from `O=C(O)c1cc(=O)c2ccccc2[nH]1` [4-hydroxy-2-quinolinecarboxylic acid] to `N[C@@H](CSCSC[C@H](N)C(=O)O)C(=O)O` [djenkolic acid], the “solubility (ppm)” value falls from 8.84E+03 ppm to 4.98E+03 ppm.

Same assay, conditions: temperature not given; cited from earlier work

Compared with `CCNCCOC(=O)c1ccc(N)cc1` [4-aminobenzoic aciD-2-(ethyl-amino)ethyl ester], `Nc1ccc2cc(S(=O)(=O)O)cc(O)c2c1` [6-amino-4-hydroxy-2-naphthalenesulfonic acid] is lower in “solubility (ppm)” value: 5.59E+03 ppm for the first, 4.48E+03 ppm for the second.

Experiment: not given
Conditions: in beverage formulations; cited from earlier work

For `C=C1C[C@@]23CC[C@H]4[C@@](C)(CCC[C@@]4(C)C(=O)O[C@@H]4O[C@H](CO)[C@@H](O)[C@H](O[C@@H]5O[C@H](CO)[C@@H](O)[C@H](O)[C@H]5O)[C@H]4O[C@@H]4O[C@H](CO)[C@@H](O)[C@H](O)[C@H]4O)[C@@H]2CC[C@]1(O[C@@H]1O[C@H](CO)[C@@H](O)[C@H](O[C@@H]2O[C@H](CO)[C@@H](O)[C@H](O)[C@H]2O)[C@H]1O[C@@H]1O[C@H](CO)[C@@H](O)[C@H](O)[C@H]1O)C3` [Rebaudioside M, rebaudioside M], the “aqueous solubility and dissolution qualities” value is listed as “poor aqueous solubility”.
